Data: ChEMBL document CHEMBL4138295, “Late-Stage Microsomal Oxidation Reduces Drug-Drug Interaction and Identifies Phosphodiesterase 2A Inhibitor PF-06815189” (ACS Med Chem Lett, 2018)
Activity calls are given as the source filed them. No cut-off for these calls is given here.

Key:
[1] = Apparent permeability in RRCK cells; assay type: ADME, cell-based, Canis lupus familiaris; settings: dog, mdckii-le
Homo sapiens [2] = species on record: Homo sapiens; test: Inhibition of sodium channel site 2 (unknown origin) at 10 uM relative to control
Canis familiaris [3] = test: Half life in Beagle dog at 1 mg/kg, iv or po via gavage by LC-MS/MS analysis; assay type: ADME, organism-based, Canis lupus familiaris; settings: in vivo
Cavia porcellus = test: Inhibition of histamine-mediated increase in vascular permeability in guinea pig assessed as reduction in extravasation of Evan's blue dye-labeled albumin from blood to skin at 0.3 to 10 mg/kg, sc measured after 30 mins by spectrophotometric method; assay type: functional, organism-based
Rattus norvegicus [4] = test: Oral bioavailability in Wistar-Han rat at 5 mg/kg administered via gavage by LC-MS/MS analysis; assay type: ADME, organism-based; settings: in vivo
[5] = molecular target: cGMP-dependent 3',5'-cyclic phosphodiesterase (Homo sapiens, UniProt O00408); test: Inhibition of human PDE2A1 using 3',5'-[3H]cGMP as substrate measured after 30 mins by Yttrium silicate scintillation proximity assay
Sequence of cGMP-dependent 3',5'-cyclic phosphodiesterase (O00408 whole entry): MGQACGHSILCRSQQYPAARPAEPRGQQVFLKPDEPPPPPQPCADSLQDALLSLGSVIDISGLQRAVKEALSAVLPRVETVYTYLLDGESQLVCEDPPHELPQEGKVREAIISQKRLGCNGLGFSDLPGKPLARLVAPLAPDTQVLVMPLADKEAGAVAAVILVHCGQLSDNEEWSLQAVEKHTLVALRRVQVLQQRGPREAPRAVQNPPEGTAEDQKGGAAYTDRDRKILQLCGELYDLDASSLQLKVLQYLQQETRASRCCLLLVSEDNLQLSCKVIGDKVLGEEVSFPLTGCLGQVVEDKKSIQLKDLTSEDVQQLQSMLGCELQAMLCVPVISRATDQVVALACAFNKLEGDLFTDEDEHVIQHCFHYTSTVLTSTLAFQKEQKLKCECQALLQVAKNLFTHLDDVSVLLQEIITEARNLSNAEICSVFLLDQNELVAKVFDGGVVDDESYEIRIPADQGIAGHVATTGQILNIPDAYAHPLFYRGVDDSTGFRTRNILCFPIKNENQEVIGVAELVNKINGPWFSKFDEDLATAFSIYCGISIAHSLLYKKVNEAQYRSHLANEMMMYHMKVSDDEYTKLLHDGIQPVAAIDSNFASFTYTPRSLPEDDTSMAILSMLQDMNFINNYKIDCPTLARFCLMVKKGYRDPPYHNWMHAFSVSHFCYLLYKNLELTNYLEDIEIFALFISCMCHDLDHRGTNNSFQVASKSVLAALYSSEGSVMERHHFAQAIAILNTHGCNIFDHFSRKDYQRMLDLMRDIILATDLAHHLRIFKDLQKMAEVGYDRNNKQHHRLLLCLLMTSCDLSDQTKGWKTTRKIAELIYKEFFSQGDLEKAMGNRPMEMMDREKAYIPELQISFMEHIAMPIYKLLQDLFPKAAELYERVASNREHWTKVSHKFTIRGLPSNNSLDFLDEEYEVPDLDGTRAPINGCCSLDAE

Cynomolgus monkey [6] = test: Half life in cynomolgus monkey at 1 mg/kg, iv or po via gavage by LC-MS/MS analysis; assay type: ADME, organism-based, Macaca fascicularis; settings: in vivo
[7] = molecular target: cGMP-specific 3',5'-cyclic phosphodiesterase (Homo sapiens, UniProt O76074); test: Inhibition of PDE5A1 (unknown origin) using 3',5'-[3H]cGMP as substrate measured after 30 mins by Yttrium silicate scintillation proximity assay
Canis familiaris [8] = test: Volume of distribution at steady state in Beagle dog at 1 mg/kg, iv or po via gavage by LC-MS/MS analysis; assay type: ADME, organism-based, Canis lupus familiaris; settings: in vivo
[9] = Half life in Wistar-Han rat at 1 mg/kg, iv or 5 mg/kg, po via gavage by LC-MS/MS analysis; assay type: ADME, organism-based; settings: in vivo
[10] = Oral bioavailability in cynomolgus monkey at 5 mg/kg administered via gavage by LC-MS/MS analysis; assay type: ADME, organism-based, Macaca fascicularis; settings: in vivo
Homo sapiens [11] = species on record: Homo sapiens; test: Selectivity ratio of IC50 for PDE5A1 (unknown origin) to IC50 for human PDE2A1
[12] = Oral bioavailability in Beagle dog at 5 mg/kg administered via gavage by LC-MS/MS analysis; assay type: ADME, organism-based, Canis lupus familiaris; settings: in vivo
Cynomolgus monkey [13] = test: Volume of distribution at steady state in cynomolgus monkey at 1 mg/kg, iv or po via gavage by LC-MS/MS analysis; assay type: ADME, organism-based, Macaca fascicularis; settings: in vivo
Rattus norvegicus [14] = test: Volume of distribution at steady state in Wistar-Han rat at 1 mg/kg, iv or 5 mg/kg, po via gavage by LC-MS/MS analysis; assay type: ADME, organism-based; settings: in vivo
[15] = Drug recovery in Wistar-Han rat at 1 mg/kg, iv or 5 mg/kg, po via gavage measured up to 24 hrs by LC-MS/MS analysis; assay type: ADME, organism-based; settings: in vivo, read-out: Drug recovery
[16] = Drug recovery in Beagle dog at 1 mg/kg, iv or po via gavage measured up to 24 hrs by LC-MS/MS analysis; assay type: ADME, organism-based, Canis lupus familiaris; settings: in vivo, read-out: Drug recovery
[17] = Drug recovery in cynomolgus monkey at 1 mg/kg, iv or po via gavage measured up to 24 hrs by LC-MS/MS analysis; assay type: ADME, organism-based, Macaca fascicularis; settings: in vivo, read-out: Drug recovery
[18] = Drug metabolism in cynomolgus monkey liver microsomes assessed as PF-06815189 formation at 20 uM measured after 50 mins by UHPLC-UV analysis; assay type: ADME, Macaca fascicularis, microsome
[19] = Drug metabolism in cynomolgus monkey liver microsomes assessed as 5-(hydroxymethyl)-7-(3-(hydroxymethyl)-1-methyl-5-(4-(trifluoromethyl)phenyl)-1H-pyrazol-4-yl)-2-methylimidazo[1,5-f][1,2,4]triazin-4(3H)-one formation at 20 uM measured after 50 mins by UHPLC-UV analysis; assay type: ADME, Macaca fascicularis, microsome
[20] = Drug metabolism in cynomolgus monkey liver microsomes assessed as 7-(3-(hydroxymethyl)-1-methyl-5-(4-(trifluoromethyl)phenyl)-1H-pyrazol-4-yl)-2,5-dimethylimidazo[1,5-f][1,2,4]triazin-4(3H)-one formation at 20 uM measured after 50 mins by UHPLC-UV analysis; assay type: ADME, Macaca fascicularis, microsome
Cytochrome P450 3A4 = Cytochrome P450 3A4 (Homo sapiens, UniProt P08684); test: Binding affinity to recombinant human CYP3A4 expressed in microsomes at 1 uM after 3 to 60 mins in presence of NADPH by HPLC-MS analysis; assay type: ADME
Sequence of Cytochrome P450 3A4 (P08684 whole entry): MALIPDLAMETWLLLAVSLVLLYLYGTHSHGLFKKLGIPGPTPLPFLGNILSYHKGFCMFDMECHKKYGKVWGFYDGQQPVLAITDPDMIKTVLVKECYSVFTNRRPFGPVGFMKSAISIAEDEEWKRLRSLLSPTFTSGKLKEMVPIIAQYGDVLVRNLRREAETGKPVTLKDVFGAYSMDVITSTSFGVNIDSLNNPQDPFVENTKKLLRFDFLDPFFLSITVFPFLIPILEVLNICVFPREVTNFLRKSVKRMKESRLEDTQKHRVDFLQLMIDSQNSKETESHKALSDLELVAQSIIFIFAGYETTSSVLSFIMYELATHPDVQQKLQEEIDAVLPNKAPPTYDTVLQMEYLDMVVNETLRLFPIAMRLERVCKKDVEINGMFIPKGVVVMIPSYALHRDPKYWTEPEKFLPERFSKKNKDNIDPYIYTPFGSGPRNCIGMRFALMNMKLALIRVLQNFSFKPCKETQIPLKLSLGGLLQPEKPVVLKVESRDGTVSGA

Question: For `Cc1nn2c(-c3c(CO)nn(C)c3-c3ccc(C(F)(F)F)cc3)nc(CO)c2c(=O)[nH]1`, which Papp [1] is on record?
Answer: The Papp was 5 ×10⁻⁶ cm/s.

Question: For `Cc1nn2c(-c3c(C)nn(C)c3-c3ccc(C(F)(F)F)cc3)nc(CO)c2c(=O)[nH]1`, which inhibition (Homo sapiens [2]) is on record?
Answer: Its inhibition is 17%.

Question: And the t1/2 (Canis familiaris [3])?
Answer: The t1/2 was 4.8 h.

Question: And the inhibition (Cavia porcellus)?
Answer: The inhibition was “Active”.

Question: And the F (Rattus norvegicus [4])?
Answer: The F was 50%.

Question: And the IC50 [5]?
Answer: Its IC50 is 0.4 nM.

Question: And the t1/2 (Cynomolgus monkey [6])?
Answer: Its t1/2 is 3.6 h.

Question: And the Papp [1]?
Answer: Its Papp is 8 ×10⁻⁶ cm/s.

Question: And the IC50 [7]?
Answer: Its IC50 is 2440 nM.

Question: What about the Vdss (Canis familiaris [8]) of the same compound?
Answer: The Vdss was 0.4 L/kg.

Question: And the half-life [9]?
Answer: Its half-life is 1.2 h.

Question: And the bioavailability [10]?
Answer: Its bioavailability is 61%.

Question: And the Ratio IC50 (Homo sapiens [11])?
Answer: The Ratio IC50 was 1000.

Question: What about the bioavailability [12] of the same compound?
Answer: The bioavailability was 79%.

Question: And the Vdss (Cynomolgus monkey [13])?
Answer: Its Vdss is 0.8 L/kg.

Question: And the Vdss (Rattus norvegicus [14])?
Answer: The Vdss was 1.5 L/kg.

Question: And the dose excreted at 24 h [15]?
Answer: The dose excreted at 24 h was 22%.

Question: And the dose excreted at 24 h [16]?
Answer: Its dose excreted at 24 h is 48%.

Question: And the dose excreted at 24 h [17]?
Answer: Its dose excreted at 24 h is 26%.

Question: Which Drug metabolism [18] does the source give for `Cc1nn2c(-c3c(C)nn(C)c3-c3ccc(C(F)(F)F)cc3)nc(C)c2c(=O)[nH]1` here?
Answer: The Drug metabolism was “Metabolite_Detected”.

Question: What about the Drug metabolism [19] of the same compound?
Answer: Its Drug metabolism is “Metabolite_Detected”.

Question: And the IC50 [5]?
Answer: The IC50 was 0.6 nM.

Question: And the Drug metabolism [20]?
Answer: Its Drug metabolism is “Metabolite_Detected”.

Question: What about the Activity (Cytochrome P450 3A4) of the same compound?
Answer: Its Activity is “Active”.

Question: Which IC50 [5] does the source give for `Cc1nn2c(-c3c(CO)nn(C)c3-c3ccc(C(F)(F)F)cc3)nc(C)c2c(=O)[nH]1` here?
Answer: The IC50 was 6.9 nM.

Question: And the Papp [1]?
Answer: The Papp was 17 ×10⁻⁶ cm/s.
